# Assay results published in paper PMC9064382 (RSC Advances, 2019).
# Columns and labels:
# [1] = biological target: T1, hOATP1B3 (Homo sapiens, UniProt Q9NPD5); assay: Uptake of aconitum alkaloids in hOATP1B3-transfected HEK293 cells vs mock; format: in vitro ADME; conditions: 10 μm, 2 min
# T1 sequence (Q9NPD5 1-702): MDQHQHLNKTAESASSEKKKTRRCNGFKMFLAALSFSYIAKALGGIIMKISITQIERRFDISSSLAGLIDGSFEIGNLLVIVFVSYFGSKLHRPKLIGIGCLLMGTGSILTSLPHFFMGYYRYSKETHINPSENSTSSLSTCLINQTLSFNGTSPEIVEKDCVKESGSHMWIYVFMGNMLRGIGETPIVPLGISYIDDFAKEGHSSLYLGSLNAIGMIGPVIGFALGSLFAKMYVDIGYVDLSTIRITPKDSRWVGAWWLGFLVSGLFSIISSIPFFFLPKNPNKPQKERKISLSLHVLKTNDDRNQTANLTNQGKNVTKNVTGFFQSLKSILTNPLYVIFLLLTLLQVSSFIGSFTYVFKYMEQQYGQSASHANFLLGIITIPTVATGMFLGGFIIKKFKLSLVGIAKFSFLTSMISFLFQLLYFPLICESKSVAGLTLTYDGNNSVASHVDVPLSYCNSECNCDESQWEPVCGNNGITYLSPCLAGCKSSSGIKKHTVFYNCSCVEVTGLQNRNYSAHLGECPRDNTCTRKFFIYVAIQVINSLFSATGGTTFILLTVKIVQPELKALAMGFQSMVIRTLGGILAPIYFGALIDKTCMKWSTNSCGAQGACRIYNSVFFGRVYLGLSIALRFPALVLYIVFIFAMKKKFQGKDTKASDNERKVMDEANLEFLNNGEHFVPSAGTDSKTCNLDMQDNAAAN
# [2] = biological target: T2, hOCT1 (Homo sapiens, UniProt O15245); assay: Uptake of aconitum alkaloids in hOCT1-transfected cells vs mock; format: in vitro ADME; conditions: 10 μm, 5 min
# T2 sequence (O15245 1-554): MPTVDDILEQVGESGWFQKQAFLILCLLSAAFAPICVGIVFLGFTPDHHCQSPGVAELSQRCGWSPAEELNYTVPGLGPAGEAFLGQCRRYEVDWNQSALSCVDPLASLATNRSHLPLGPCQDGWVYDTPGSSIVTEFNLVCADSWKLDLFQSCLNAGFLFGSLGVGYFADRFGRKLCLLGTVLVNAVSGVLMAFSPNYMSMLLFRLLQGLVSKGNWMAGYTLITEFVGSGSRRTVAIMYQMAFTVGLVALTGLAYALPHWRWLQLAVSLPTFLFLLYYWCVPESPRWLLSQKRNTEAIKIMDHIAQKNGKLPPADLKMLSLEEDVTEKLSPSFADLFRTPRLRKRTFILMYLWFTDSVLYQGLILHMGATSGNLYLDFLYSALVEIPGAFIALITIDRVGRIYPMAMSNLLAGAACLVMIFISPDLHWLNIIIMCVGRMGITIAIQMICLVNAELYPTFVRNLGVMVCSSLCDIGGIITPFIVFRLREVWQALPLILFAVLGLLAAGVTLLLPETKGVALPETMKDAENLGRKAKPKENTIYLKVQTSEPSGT
# [3] = format: in vivo, Sprague-Dawley (SD) rats; conditions: aconitine 0.5 mg kg^−1 oral; pretreatment 15 min before; n = 6
# [4] = format: in vivo, Sprague-Dawley (SD) rats; conditions: aconitine 0.5 mg kg^−1 oral; pretreatment 15 min before; n = 6; remark: listed apart in the source
# [5] = system: OCT2; conditions: read-out: Ki, competitive inhibition of OCT2; TEA probe substrate; cited from earlier work
compound,measurement,setting,value
CCN1C[C@]2(COC)[C@H](O)C[C@H](OC)[C@@]34[C@@H]5C[C@@]6(O)[C@H](OC(=O)c7ccccc7)[C@@H]5[C@@](OC(C)=O)([C@@H]([C@H](OC)[C@H]23)[C@@H]14)[C@@H](O)[C@@H]6OC [aconitine],"uptake in hOATP1B3-transfected cells, adjusted by protein concentration",[1]; HEK293-hOATP1B3,344 pmol mg^−1 protein
same,"concentration in hOATP1B3-transfected cells, fold of HEK293 mock cells",[1]; HEK293-hOATP1B3 vs mock,1.35 fold
same,"concentration in HEK293–hOCT1, fold higher than control",[2],roughly 1.9 fold
same,AUC(0–2 h) of aconitine in rat liver,[3],100.3 ± 8.9 ng/h/g
same,AUC(0–2 h) of aconitine in rat kidneys,[4],60.5 ± 6.8 ng/h/g
same,Ki,[5],145 µM
